Assay results published in PubChem BioAssay (NCI).
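Grown in 96-well plates, cells were treated for 48 hours with each compound at five concentrations. Insufficient inhibition: endpoint recorded as highest concentration tested. GI50 marks 50% less growth. Definition used: TGI = concentration required for complete inhibition of growth.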

Experiments:
Assay in all cases: growth of human tumour cells (NCI), 48 h
DMS 273 small cell lung = test system: DMS 273 small cell lung
OVCAR-3 ovarian = test system: OVCAR-3 ovarian
HOP-92 NSCLC = test system: HOP-92 NSCLC
DMS 114 small cell lung = test system: DMS 114 small cell lung
SF-295 CNS = test system: SF-295 CNS
M14 melanoma = test system: M14 melanoma
SNB-75 CNS = test system: SNB-75 CNS
HT29 colon = test system: HT29 colon
OVCAR-5 ovarian = test system: OVCAR-5 ovarian
LXFL 529 NSCLC = test system: LXFL 529 NSCLC
COLO 205 colon = test system: COLO 205 colon
MALME-3M melanoma = test system: MALME-3M melanoma
LOX IMVI melanoma = test system: LOX IMVI melanoma
A549 NSCLC = test system: A549 NSCLC
RXF 393 renal = test system: RXF 393 renal
MOLT-4 leukemia = test system: MOLT-4 leukemia
CCRF-CEM leukemia = test system: CCRF-CEM leukemia
HCT-116 colon = test system: HCT-116 colon
EKVX NSCLC = test system: EKVX NSCLC
SN12C renal = test system: SN12C renal
SK-MEL-5 melanoma = test system: SK-MEL-5 melanoma
NCI-H522 lung = test system: NCI-H522 lung
SF-268 CNS = test system: SF-268 CNS
SNB-78 CNS = test system: SNB-78 CNS
HCC-2998 colon = test system: HCC-2998 colon
M19-MEL melanoma = test system: M19-MEL melanoma
786-0 renal = test system: 786-0 renal
SW-620 colon = test system: SW-620 colon
HOP-62 NSCLC = test system: HOP-62 NSCLC
RPMI-8226 leukemia = test system: RPMI-8226 leukemia
NCI-H226 lung = test system: NCI-H226 lung
U251 CNS = test system: U251 CNS
A498 renal = test system: A498 renal
OVCAR-8 ovarian = test system: OVCAR-8 ovarian
KM12 colon = test system: KM12 colon
UACC-257 melanoma = test system: UACC-257 melanoma
RXF-631 renal = test system: RXF-631 renal
DLD-1 colon = test system: DLD-1 colon
OVCAR-4 ovarian = test system: OVCAR-4 ovarian
UO-31 renal = test system: UO-31 renal
HCT-15 colon = test system: HCT-15 colon
IGROV1 ovarian = test system: IGROV1 ovarian
UACC-62 melanoma = test system: UACC-62 melanoma
XF 498 CNS = test system: XF 498 CNS
NCI-H23 lung = test system: NCI-H23 lung
SK-OV-3 ovarian = test system: SK-OV-3 ovarian
TK-10 renal = test system: TK-10 renal
HL-60(TB) leukemia = test system: HL-60(TB) leukemia
SR leukemia = test system: SR leukemia
K-562 leukemia = test system: K-562 leukemia
SF-539 CNS = test system: SF-539 CNS
SNB-19 CNS = test system: SNB-19 CNS
CAKI-1 renal = test system: CAKI-1 renal
NCI-H460 lung = test system: NCI-H460 lung
KM20L2 colon = test system: KM20L2 colon
ACHN renal = test system: ACHN renal
SK-MEL-28 melanoma = test system: SK-MEL-28 melanoma
SK-MEL-2 melanoma = test system: SK-MEL-2 melanoma

Work on `N#CC(C#N)=C(C(C#N)C#N)C(C#N)C#N` yielded a TGI (DMS 273 small cell lung) of over 100 µM, a TGI (OVCAR-3 ovarian) of over 100 µM and a TGI (HOP-92 NSCLC) of over 100 µM. For the same molecule, the TGI (DMS 114 small cell lung) was over 100 µM, the TGI (SF-295 CNS) was over 100 µM and the TGI (M14 melanoma) was over 100 µM. It also gave a TGI (SNB-75 CNS) of over 100 µM, a TGI (HT29 colon) of over 100 µM and a TGI (OVCAR-5 ovarian) of over 100 µM. For the same molecule, the TGI (LXFL 529 NSCLC) was over 100 µM, the TGI (COLO 205 colon) was over 100 µM and the TGI (MALME-3M melanoma) was over 100 µM. For the same molecule, the TGI (LOX IMVI melanoma) was over 100 µM, the TGI (A549 NSCLC) was over 100 µM and the TGI (RXF 393 renal) was over 100 µM. It also gave a TGI (MOLT-4 leukemia) of over 100 µM, a TGI (CCRF-CEM leukemia) of over 100 µM and a TGI (HCT-116 colon) of over 100 µM. For the same molecule, the TGI (EKVX NSCLC) was over 100 µM, the TGI (SN12C renal) was over 100 µM and the TGI (SK-MEL-5 melanoma) was over 100 µM. It also gave a TGI (NCI-H522 lung) of over 100 µM, a TGI (SF-268 CNS) of over 100 µM and a TGI (SNB-78 CNS) of over 100 µM. The TGI (HCC-2998 colon) was over 100 µM, the TGI (M19-MEL melanoma) was over 100 µM and the TGI (786-0 renal) was over 100 µM. For the same molecule, the TGI (SW-620 colon) was over 100 µM, the TGI (HOP-62 NSCLC) was over 100 µM and the TGI (RPMI-8226 leukemia) was over 100 µM. It also gave a TGI (NCI-H226 lung) of over 100 µM, a TGI (U251 CNS) of over 100 µM and a TGI (A498 renal) of over 100 µM. It also gave a TGI (OVCAR-8 ovarian) of over 100 µM, a TGI (KM12 colon) of over 100 µM and a TGI (UACC-257 melanoma) of over 100 µM. It also gave a TGI (RXF-631 renal) of over 100 µM, a TGI (DLD-1 colon) of over 100 µM and a TGI (OVCAR-4 ovarian) of over 100 µM. The TGI (UO-31 renal) was over 100 µM, the TGI (HCT-15 colon) was over 100 µM and the TGI (IGROV1 ovarian) was over 100 µM. It also gave a TGI (UACC-62 melanoma) of over 100 µM, a TGI (XF 498 CNS) of over 100 µM and a TGI (NCI-H23 lung) of over 100 µM. For the same molecule, the TGI (SK-OV-3 ovarian) was over 100 µM, the TGI (TK-10 renal) was over 100 µM and the TGI (HL-60(TB) leukemia) was over 100 µM. It also gave a TGI (SR leukemia) of over 100 µM, a TGI (K-562 leukemia) of over 100 µM and a TGI (SF-539 CNS) of over 100 µM. For the same molecule, the TGI (SNB-19 CNS) was over 100 µM, the TGI (CAKI-1 renal) was over 100 µM and the TGI (NCI-H460 lung) was over 100 µM. For the same molecule, the TGI (KM20L2 colon) was over 100 µM.
With `CCC[CH2][Sn]1([CH2]CCC)[O]CC(c2ccccn2)C[O]1` the GI50 (DMS 273 small cell lung) was 15.7 µM, the TGI (DMS 273 small cell lung) was 29.6 µM and the GI50 (OVCAR-3 ovarian) was 16.7 µM. For the same molecule, the TGI (OVCAR-3 ovarian) was 30.5 µM, the GI50 (HOP-92 NSCLC) was 18.2 µM and the TGI (HOP-92 NSCLC) was 36.6 µM. It also gave a GI50 (DMS 114 small cell lung) of 10.2 µM, a TGI (DMS 114 small cell lung) of 26.7 µM and a GI50 (SF-295 CNS) of 20.3 µM. The TGI (SF-295 CNS) was 38.1 µM, the GI50 (M14 melanoma) was 16.2 µM and the TGI (M14 melanoma) was 30.7 µM. The GI50 (SNB-75 CNS) was 22.5 µM, the TGI (SNB-75 CNS) was 58 µM and the GI50 (HT29 colon) was 20.5 µM. The TGI (HT29 colon) was 38.3 µM, the GI50 (OVCAR-5 ovarian) was 21.3 µM and the TGI (OVCAR-5 ovarian) was 42.6 µM. For the same molecule, the GI50 (LXFL 529 NSCLC) was 7.96 µM, the TGI (LXFL 529 NSCLC) was 20.5 µM and the GI50 (COLO 205 colon) was 17.5 µM. It also gave a TGI (COLO 205 colon) of 31.7 µM, a GI50 (MALME-3M melanoma) of 7.93 µM and a TGI (MALME-3M melanoma) of 19.8 µM. For the same molecule, the GI50 (LOX IMVI melanoma) was 13.7 µM, the TGI (LOX IMVI melanoma) was 27.7 µM and the GI50 (A549 NSCLC) was 32.1 µM. The TGI (A549 NSCLC) was over 100 µM, the GI50 (ACHN renal) was 19.8 µM and the TGI (ACHN renal) was 34 µM. The GI50 (RXF 393 renal) was 19.5 µM, the TGI (RXF 393 renal) was 36.7 µM and the GI50 (MOLT-4 leukemia) was 17.2 µM. For the same molecule, the TGI (MOLT-4 leukemia) was 56 µM, the GI50 (CCRF-CEM leukemia) was 4.13 µM and the TGI (CCRF-CEM leukemia) was 34.8 µM. The GI50 (HCT-116 colon) was 19.3 µM, the TGI (HCT-116 colon) was 33.7 µM and the GI50 (EKVX NSCLC) was 15.5 µM. For the same molecule, the TGI (EKVX NSCLC) was 36.2 µM, the GI50 (SN12C renal) was 19.8 µM and the TGI (SN12C renal) was 35.3 µM. The GI50 (SK-MEL-5 melanoma) was 17 µM, the TGI (SK-MEL-5 melanoma) was 34.4 µM and the GI50 (NCI-H522 lung) was 3.14 µM. It also gave a TGI (NCI-H522 lung) of 11.8 µM, a GI50 (SNB-78 CNS) of 19.9 µM and a TGI (SNB-78 CNS) of 61.3 µM. It also gave a GI50 (HCC-2998 colon) of 19.4 µM, a TGI (HCC-2998 colon) of 34.3 µM and a GI50 (M19-MEL melanoma) of 14.8 µM. It also gave a TGI (M19-MEL melanoma) of 29.2 µM, a GI50 (786-0 renal) of 15.6 µM and a TGI (786-0 renal) of 29.3 µM. It also gave a GI50 (SW-620 colon) of 15.3 µM, a TGI (SW-620 colon) of 29.5 µM and a GI50 (HOP-62 NSCLC) of 23.3 µM. It also gave a TGI (HOP-62 NSCLC) of 68.6 µM, a GI50 (RPMI-8226 leukemia) of 7.2 µM and a TGI (RPMI-8226 leukemia) of 34.5 µM. It also gave a GI50 (NCI-H226 lung) of 31 µM, a TGI (NCI-H226 lung) of over 100 µM and a GI50 (U251 CNS) of 15.9 µM. It also gave a TGI (U251 CNS) of 29.6 µM, a GI50 (A498 renal) of 26.7 µM and a TGI (A498 renal) of 50.7 µM. The GI50 (SK-MEL-28 melanoma) was 15.4 µM, the TGI (SK-MEL-28 melanoma) was 29.4 µM and the GI50 (OVCAR-8 ovarian) was 17.9 µM. The TGI (OVCAR-8 ovarian) was 36.8 µM, the GI50 (KM12 colon) was 23.2 µM and the TGI (KM12 colon) was 59.4 µM. The GI50 (UACC-257 melanoma) was 17.3 µM, the TGI (UACC-257 melanoma) was 32.4 µM and the GI50 (RXF-631 renal) was 15.4 µM. It also gave a TGI (RXF-631 renal) of 29.5 µM, a GI50 (DLD-1 colon) of 15.3 µM and a TGI (DLD-1 colon) of 29.8 µM. The GI50 (OVCAR-4 ovarian) was 20.7 µM, the TGI (OVCAR-4 ovarian) was 37.9 µM and the GI50 (UO-31 renal) was 19.4 µM. For the same molecule, the TGI (UO-31 renal) was 35.5 µM, the GI50 (HCT-15 colon) was 18.2 µM and the TGI (HCT-15 colon) was 32.6 µM. It also gave a GI50 (IGROV1 ovarian) of 20.2 µM, a TGI (IGROV1 ovarian) of 36.6 µM and a GI50 (SK-MEL-2 melanoma) of 14 µM. The TGI (SK-MEL-2 melanoma) was 28.5 µM, the GI50 (UACC-62 melanoma) was 14.1 µM and the TGI (UACC-62 melanoma) was 28 µM. The GI50 (XF 498 CNS) was 17.9 µM, the TGI (XF 498 CNS) was 32.7 µM and the GI50 (NCI-H23 lung) was 17.1 µM. The TGI (NCI-H23 lung) was 35.3 µM, the GI50 (SK-OV-3 ovarian) was 24.4 µM and the TGI (SK-OV-3 ovarian) was 84.8 µM. For the same molecule, the GI50 (TK-10 renal) was 18.9 µM, the TGI (TK-10 renal) was 33.3 µM and the GI50 (HL-60(TB) leukemia) was 7.65 µM. For the same molecule, the TGI (HL-60(TB) leukemia) was 29.4 µM, the GI50 (SR leukemia) was 12.4 µM and the TGI (SR leukemia) was 41.7 µM. The GI50 (K-562 leukemia) was 14.6 µM, the TGI (K-562 leukemia) was 65.8 µM and the GI50 (SF-539 CNS) was 18.6 µM. It also gave a TGI (SF-539 CNS) of 33.1 µM, a GI50 (SNB-19 CNS) of 22.1 µM and a TGI (SNB-19 CNS) of 45 µM. It also gave a GI50 (CAKI-1 renal) of 7.39 µM, a TGI (CAKI-1 renal) of 22.1 µM and a GI50 (NCI-H460 lung) of 33.5 µM. The TGI (NCI-H460 lung) was over 100 µM, the GI50 (KM20L2 colon) was 29.6 µM and the TGI (KM20L2 colon) was 73.3 µM.
